Assay results reported in US20030008807A1, “Novel signaling pathway for the production of inflammatory pain and neuropathy” (The Regents of the University of California, priority 2001, published 2003).
Entries after “also recorded” stand apart in the source; their conditions may differ.

Experiments:
[1] = test system: Taxol-induced hyperalgesia; assay: Taxol-induced painful peripheral neuropathy, Randall-Selitto paw-withdrawal test; format: in vivo, rat; conditions: male and female rats, administered at site of nociceptive testing on paw
From the text: (§1) The role of Ras-MEK-ERK 1/2 cascade in painful peripheral neuropathy has been evaluated in three rodent models of common clinical conditions in which patients experience painful peripheral neuropathy. The three models are as follows: 1) Taxol® (a major cancer chemotherapy agent)-induced painful peripheral neuropathy (Dina, O. A., et al., (2001) Role of protein kinase C-epsilon and protein kinase A in a model of paclitaxel-induced painful peripheral neuropathy in the rat. Neuroscience 108:507-515); 2) vincristine (another cancer chemotherapy agent)-induced painful peripheral neuropathy (Aley, K. O., et al., (1996) Vincristine hyperalgesia in the rat: a possible modelfor painful vincristine neuropathy in humans. Neuroscience 73:259-265; Tanner, K. D., et al., (1998) Nociceptor hyper-responsiveness during vincristine-induced painful peripheral neuropathy in the rat. J. Neuroscience 18:6480-6491; Tanner, K. D., et al., (1998) Microtubule disorientation and axonal swelling in unmyelinated sensory axons during vincristine-induced painful neuropathy in rat. J. Comp. Neurol., 395:481-492; and, Tanner, K. D., et al., (2002) Altered temporal patterning of afferent activity in a rat model of vincristine-induced peripheral neuropathy (Submitted -Neuroscience).); and, 3) alcohol-induced painful peripheral neuropathy (Dina, O. A., et al., (2000) Key role for the epsilon isoform of protein kinase C in painful alcoholic neuropathy in the rat. J. Neurosci. 20:8614-8619). In all three models, inhibition of MEK by a MEK inhibitor, PD98509, produced either a moderate (Taxol and vincristine) or profound (alcohol) reversal of the painful peripheral neuropathy. In the third model, alcohol-induced painful peripheral neuropathy, a second inhibitor of the Ras-MEK-ERK 1/2 cascade, which was MEK inhibitor U0126, was also employed.
The pain threshold in normal male and female rats was approximately 110 grams, using the Randall-Selitto paw-withdrawal test (plotted as absolute change in nociceptive threshold). Following administration of Taxol, the threshold fell to approximately 70 grams.

[2] = test system: mechanical nociceptive threshold; assay: Epinephrine-induced hyperalgesia in gonad-intact and gonadectomized male and female rats (Example 2); conditions: inhibitor 1 μg, epinephrine 100 ng intradermal
Method: The nociceptive flexion reflex was quantified using the Randall-Selitto paw pressure device (Analgesymeter, Stoetling, Chicago, Ill., USA), which applies a linearly increasing mechanical force to the dorsum of the rat's hind paw. The mechanical nociceptive threshold was defined as the force in grams at which the rat withdrew its paw. […] Baseline paw-withdrawal threshold was defined as the mean of six readings before test agents were injected. […] Each group of rats was treated with only one agonist and/or antagonist injected peripherally by the intradermal route. […] All behavioural testing was done between 10.00 and 16.00 h. […] The protein kinase inhibitor was separated from the distilled water by drawing up a small air bubble (<1 μL) into the syringe after drawing up the protein kinase inhibitor but before drawing up the distilled water.
A stock solution of PGE2 (4 mg/mL) was made by dissolving it in 10% ethanol in normal saline; further dilution to 100 ng was made by addition of saline. Final concentration of ethanol was <10%. […] Stock solutions (1 μg/μL) of inhibitors were stored at −20° C. […] Inhibitors were injected at a concentration of 1 μg/2.5 μL.

[3] = test system: alcohol-induced hyperalgesia; assay: Alcohol-induced painful peripheral neuropathy, Randall-Selitto paw-withdrawal test; format: in vivo, rat
From the text: as §1
The pain threshold in normal rats was approximately 110 grams, using the Randall-Selitto paw-withdrawal threshold test (plotted as percentage change in nociceptive threshold). Following chronic consumption of a diet in which alcohol replaced calories, but not other nutrients, in the normal diet, the threshold fell to approximately 70 grams. […] See FIG. 13A, which illustrates results from female rats and FIG. 13B, which illustrates results from male rats.

[4] = test system: mechanical nociceptive threshold; assay: Epinephrine-induced mechanical hyperalgesia, Randall-Selitto paw-withdrawal test (Example 1)
From the text: (§4) The nociceptive flexion reflex (Randall-Selitto paw-withdrawal test) was quantified with a Basile Analge-symeter (Stoelting, Chicago, Ill.), which applies a linearly increasing mechanical force to the dorsum of the rat's hindpaw. The mechanical nociceptive threshold was defined as the force in grams at which the rat withdrew its paw. […] They were allowed to crawl into individual cylindrical Perspex blocks and were lightly restrained there by closing both ends of the cylinder. […] The rats were allowed to acclimatize to the restrainer for 5-10 min, after which the hindpaws were exposed to the test stimulus. Three readings were taken at 5 min intervals, and their mean was considered the baseline threshold. After each drug administration, mechanical paw-withdrawal thresholds were determined again as the mean of three readings taken 20, 25, and 30 min after injection.
Inhibitors were diluted with distilled water before intra-dermal injections into the paw using a 10 μl microsyringe (Hamilton, Reno, Nev.). Injections of peptides (1 μg/2.5 μl) were always preceded by injection of distilled water (2.5 μl) to produce hypo-osmotic shock. […] Paw-withdrawal thresholds were measured again 10, 15, and 20 min after injecting the test agent. The mean of the paw-withdrawal thresholds obtained at these three times was then taken as the mechanical nociceptive threshold at the dose of the test agent used. The effect of each dose a test agent was calculated as the percentage change from baseline.

[5] = test system: vincristine-induced hyperalgesia; assay: Vincristine-induced painful peripheral neuropathy, Randall-Selitto paw-withdrawal test; format: in vivo, rat; conditions: male and female rats, administered at site of nociceptive testing on paw
From the text: as §1
The pain threshold in normal male and female rats was approximately 110 grams, using the Randall-Selitto paw-withdrawal test (plotted as absolute change in nociceptive threshold). Following administration of vincristine, the threshold fell to approximately 65 grams.

[6] = test system: mechanical nociceptive threshold; assay: PGE2-induced hyperalgesia, Randall-Selitto paw-withdrawal test (Example 1); format: in vivo, rat; conditions: intradermal, inhibitor 1 μg plus PGE2 100 ng, male rats
Method: (§2) The nociceptive flexion reflex (Randall-Selitto paw-withdrawal test) was quantified with a Basile Analge-symeter (Stoelting, Chicago, Ill.), which applies a linearly increasing mechanical force to the dorsum of the rat's hindpaw. The mechanical nociceptive threshold was defined as the force in grams at which the rat withdrew its paw. On the day of the test, animals were brought to the laboratory and allowed to remain in the cage for 10-15 min. They were allowed to crawl into individual cylindrical Perspex blocks and were lightly restrained there by closing both ends of the cylinder. […] Three readings were taken at 5 min intervals, and their mean was considered the baseline threshold. After each drug administration, mechanical paw-withdrawal thresholds were determined again as the mean of three readings taken 20, 25, and 30 min after injection. The result was expressed as the percentage decrease in nociceptive threshold [(paw-withdrawal threshold after the drug-basal paw withdrawal threshold)/basal withdrawal threshold×100].
(§3) Stock solutions (1 μg/μl) of BIM (in 10% dimethylsulfoxide) and εV1-2 and WI PTI DE (in 0.9% saline) were stored at […]. […] Paw-withdrawal thresholds were measured again 10, 15, and 20 min after injecting the test agent. […] The effect of each dose a test agent was calculated as the percentage change from baseline.

[7] = test system: mechanical nociceptive threshold; assay: ψεRACK (PKCε activator)-induced hyperalgesia, Randall-Selitto paw-withdrawal test; format: in vivo, rat; conditions: intradermal, inhibitor 1 μg plus ψεRACK 1 μg, male rats
Method: as §2, §3

[8] = test system: ERK1/2; assay: Epinephrine-stimulated ERK1/2 phosphorylation in cultured rat DRG neurons (Western analysis); format: cell-based
Method: Trypsin was inactivated by adding 100 μg/ml soybean trypsin inhibitor and 2.5 mg/ml MgSO4. The cells were centrifuged at 300×g for 5 min and resuspended culture media containing minimal essential medium (MEM) supplemented with 10% heat-inactivated fetal calf serum, 1×MEM vitamins, and 1000 U/ml each of penicillin and streptomycin. The culture was enriched for neurons by preplating on 100 mm culture dishes pretreated with 0.1 mg/ml poly-DL-ornithine in 15 mM sodium borate buffer. After culture for 15-20 hr, the loosely attached neuronal cells were collected and plated for 3 hr on six-well plates coated with 0.1 mg/ml poly-DL-ornithine and 1 mg/ml laminin.
After drug treatment, cells from neuron-enriched DRG cultures were collected and centrifuged at 300×g for 5 min at 4° C. […] Blots were incubated with anti-phospho-p42/44 MAP kinase antibody (diluted 1:500 in blocking buffer) overnight at 4° C. Blots were rinsed three times in PBS-T and incubated in blocking buffer containing HRP-conjugated goat anti-rabbit IgG (diluted 1:1000; Boehringer Mannheim, Indianapolis, Ind.) for 1 hr at 27° C. Immunoreactive bands were visualized by enhanced chemiluminescence (Amersham Pharmacia Biotech, Piscataway, N.J.). The membranes were then stripped of antibodies by incubation in 200 mM NaOH for 20 min at 27° C. […] After three washes in PBS-T, blots were incubated with HRP-conjugated goat anti-rabbit IgG (diluted 1:1000; Boehringer Mannheim) for 1 hr at 27° C., and immunoreactive bands were visualized by enhanced chemiluminescence and autoradiography. […] Data were normalized by dividing values obtained for phospho-ERK1 and phospho-ERK2 immunoreactivity by the value obtained for total ERK1 immunoreactivity for each sample.

[9] = test system: mechanical nociceptive threshold; assay: Prostaglandin E2-induced hyperalgesia in male and female rats (Example 2); format: in vivo, rat; conditions: both sexes, gonad-intact; inhibitor 1 μg, PGE2 100 ng intradermal
From the text: The nociceptive flexion reflex was quantified using the Randall-Selitto paw pressure device (Analgesymeter, Stoetling, Chicago, Ill., USA), which applies a linearly increasing mechanical force to the dorsum of the rat's hind paw. The mechanical nociceptive threshold was defined as the force in grams at which the rat withdrew its paw. The protocols for this procedure have been previously described (Taiwo et al., (1989) The contribution of training to sensitivity in the nociceptive paw-withdrawal test. Brain Res., 487:148-151). Rats were familiarized in the testing procedure, at 5-min intervals for a period of 1 h per day for 3 days in the week preceding the experiment, to decrease variance in nociceptive thresholds (Taiwo et al., (1989), supra). Baseline paw-withdrawal threshold was defined as the mean of six readings before test agents were injected. Each paw was treated as an independent measure (Taiwo et al., (1989), supra) and each experiment was performed on a separate group of rats. Each group of rats was treated with only one agonist and/or antagonist injected peripherally by the intradermal route. It has been shown in previous studies that these agents, which are injected using the protocol described, exert a peripheral rather than central action (Khasar et al., (1995), supra; and, Khasar et al., (1999b), supra). The dose-response relationship for the effect of epinephrine was determined over a dose range of 1 ng-1 μg. All behavioural testing was done between 10.00 and 16.00 h. The blocking agents, with and without epinephrine (Khasar et al., (1999b), supra) or prostaglandin E2 (PGE2) (Aley et al., (1998), supra; Aley & Levine, (1999), supra; and, Aley et al., (2000) Chronic hypersensitivity for inflammatory nociceptor sensitization mediated by the epsilon isozyme of protein kinase C. J. Neurosci., 20:4680-4685), were injected as described previously (Khasar et al., (1995), supra; and, Khasar et al., (1999b), supra). […]

[10] = test system: mechanical nociceptive threshold; assay: Active MEK-induced hyperalgesia, Randall-Selitto paw-withdrawal test; conditions: intradermal, inhibitor 1 μg plus active MEK 0.5 U, male rats
From the text: as §4
Inhibitors were diluted with distilled water before intra-dermal injections into the paw using a 10 μl microsyringe (Hamilton, Reno, Nev.). Injections of peptides (1 μg/2.5 μl) were always preceded by injection of distilled water (2.5 μl) to produce hypo-osmotic shock. […] Paw-withdrawal thresholds were measured again 10, 15, and 20 min after injecting the test agent. […] The effect of each dose a test agent was calculated as the percentage change from baseline.

[11] = male and female rats, administered at site of nociceptive testing on paw

Molecule	effect on Taxol-induced hyperalgesia [1]	effect on Taxol-induced hyperalgesia ([1]; listed as PD98509)	effect on epinephrine-induced hyperalgesia ([2]; intact female rats)	effect on alcohol-induced hyperalgesia ([3]; female rats (FIG. 13A))	effect on alcohol-induced hyperalgesia [3, 11]	effect on alcohol-induced hyperalgesia ([3]; male and female rats, administered at site of nociceptive testing on paw, listed as PD98509)	effect on alcohol-induced hyperalgesia ([3]; male rats (FIG. 13B))	effect on epinephrine-induced mechanical hyperalgesia ([4]; intradermal, inhibitor 1 μg plus epinephrine 100 ng, male rats)	effect on vincristine-induced hyperalgesia [5]	effect on vincristine-induced hyperalgesia ([5]; listed as PD98509)	effect on vincristine-induced hyperalgesia ([5]; listed as PD980598)	effect on hyperalgesia induced by PGE2 [6]	effect on hyperalgesia induced by ψεRACK [7]	effect on epinephrine-induced ERK phosphorylation [8]	effect on epinephrine-induced mechanical hyperalgesia ([4]; rat, in vivo)	effect on epinephrine-induced hyperalgesia ([2]; gonadectomized female rats)	effect on epinephrine-induced hyperalgesia ([2]; intact male rats)	effect on prostaglandin E2-induced hyperalgesia [9]	effect on hyperalgesia induced by active MEK [10]
COc1cccc(-c2cc(=O)c3ccccc3o2)c1N [PD98059]	two-thirds reduction; also recorded: significantly reversed	moderate	attenuated	almost completely reversed	almost complete reversal	profound	almost completely reversed	inhibited	more than two-thirds reduction; also recorded: reversed	moderate	significantly reversed	had no effect	had no effect	–	–	–	–	–	–
N#CC(=C(/N)Sc1ccccc1N)/C(C#N)=C(\N)Sc1ccccc1N [U0126]	–	–	attenuated	almost completely reversed	almost complete reversal	–	almost completely reversed	–	–	–	–	had no effect	had no effect	inhibited	inhibited	–	–	–	–
WIPTIDE	–	–	neither inhibited	–	–	–	–	–	–	–	–	–	–	–	–	inhibition	antagonized	significantly blocked; also recorded: inhibited to a similar degree	did not reduce
